{
  "source": "patent US8884017B2",
  "about": "“2-heteroarylcarboxylic acid amides” (Bayer Intellectual Property GmbH, priority 2001, dated 2014)",
  "note": "Where a name gives a salt, the structure may show the parent alone.",
  "data": [
    {"molecular_target": "α7-nAChR (Rattus norvegicus (Rat), UniProt Q05941)", "sequence (Q05941 23-502 limits assumed)": "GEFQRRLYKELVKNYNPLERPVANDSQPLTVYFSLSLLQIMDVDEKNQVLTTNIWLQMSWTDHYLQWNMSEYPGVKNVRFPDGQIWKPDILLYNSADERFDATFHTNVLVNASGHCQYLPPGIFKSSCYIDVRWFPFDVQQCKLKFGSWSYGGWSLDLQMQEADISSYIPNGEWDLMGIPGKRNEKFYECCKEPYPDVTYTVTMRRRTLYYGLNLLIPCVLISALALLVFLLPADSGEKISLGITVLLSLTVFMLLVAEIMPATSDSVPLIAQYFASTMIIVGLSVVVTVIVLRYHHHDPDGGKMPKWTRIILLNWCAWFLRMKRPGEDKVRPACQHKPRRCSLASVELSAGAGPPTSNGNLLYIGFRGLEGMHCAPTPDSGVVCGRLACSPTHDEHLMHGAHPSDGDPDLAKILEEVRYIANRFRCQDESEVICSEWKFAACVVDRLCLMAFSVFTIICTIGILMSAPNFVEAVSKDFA", "assay": "Affinity for α7-nAChR by inhibition of [3H]-methyllycaconitine binding to rat brain membranes", "conditions": "rat brain membranes (P2 fraction), Ki=IC50/(1+L/KD)", "method": "1. Determination of the Affinity of Test Substances for α7-nAChR by Inhibition of [^3H]-methyllycaconitine Binding to Rat Brain Membranes\nThe [^3H]-methyllycaconitine binding assay is a modification of the method described by Davies et al. in Neuropharmacol.\nRat brain tissue (hippocampus or whole brain) is homogenized in homogenization buffer (10% w/v, 0.32 M sucrose, 1 mM EDTA, 0.1 mM phenylmethylsulfonyl fluoride (PMSF), 0.01% (w/v) NaN3, pH 7.4, 4° C.) at 600 rpm in a glass homogenizer. The homogenate is centrifuged (1000×g, 4° C., 10 min) and the supernatant is removed. The pellet is resuspended (20% w/v) and the suspension is centrifuged (1000×g, 4° C., 10 min). The two supernatants are combined and centrifuged (15 000×g, 4° C., 30 min). The pellet obtained in this way is referred to as the P2 fraction.\nThe P2 pellet is washed with binding buffer (50 mM Tris-HCl, 1 mM MgCl2, 120 mM NaCl, 5 mM KCl, 2 mM CaCl2, pH 7.4), and centrifuged (15 000×g, 4° C., 30 min), twice.\nThe P2 membranes are resuspended in binding buffer and incubated in a volume of 250 μl (amount of membrane protein 0.1-0.5 mg) in the presence of 1-5 nM [^3H]-methyllycaconitine, 0.1% (w/v) BSA (bovine serum albumin) and various concentrations of the test substance at 21° C. for 2.5 h. Incubation is then carried out in the presence of 1 μM α-bungarotoxin or 100 μM nicotine or 10 μM MLA (methyllycaconitine) to determine the non-specific binding.\nThe incubation is stopped by adding 4 ml PBS (20 mM Na2HPO4, 5 mM KH2PO4, 150 mM NaCl, pH 7.4, 4° C.) and filtering through type A/E glass fibre filters (Gelman Sciences) which have previously been placed in 0.3% (v/v) polyethyleneimine (PEI) for 3 h. The filters are washed twice with 4 ml of PBS (4° C.), and the bound radioactivity is determined by scintillation measurement. All the assays are carried out in triplicate.", "units": {"Ki": "nM"}, "values": [
      {"smiles": "COc1cccc2cc(C(=O)N[C@H]3CN4CCC3CC4)oc12", "note": "[Example 19, N-[(3R)-1-Azabicyclo[2.2.2]oct-3-yl]-7-methoxy-1-benzofuran-2-carboxamide hydrochloride]", "Ki": 42},
      {"smiles": "Nc1ccc2cc(C(=O)N[C@H]3CN4CCC3CC4)oc2c1", "note": "[Example 35, N-[(3R)-1-Azabicyclo[2.2.2]oct-3-yl]-6-amino-1-benzofuran-2-carboxamide]", "Ki": 3.7},
      {"smiles": "O=C(N[C@H]1CN2CCC1CC2)c1cc2cccc([N+](=O)[O-])c2o1", "note": "[Example 36, N-[(3R)-1-Azabicyclo[2.2.2]oct-3-yl]-7-nitro-1-benzofuran-2-carboxamide]", "Ki": 63},
      {"smiles": "Nc1cccc2cc(C(=O)N[C@H]3CN4CCC3CC4)oc12", "note": "[Example 37, N-[(3R)-1-Azabicyclo[2.2.2]oct-3-yl]-7-amino-1-benzofuran-2-carboxamide]", "Ki": 80},
      {"smiles": "O=C(N[C@H]1CN2CCC1CC2)c1cc2cc(F)ccc2o1", "note": "[Example 42, N-[(3R)-1-Azabicyclo[2.2.2]oct-3-yl]-5-fluoro-1-benzofuran-2-carboxamide hydrochloride]", "Ki": 37},
      {"smiles": "O=C(N[C@H]1CN2CCC1CC2)c1cc2cccc(Br)c2o1", "note": "[Example 46, N-[(3R)-1-Azabicyclo[2.2.2]oct-3-yl]-7-bromo-1-benzofuran-2-carboxamide]", "Ki": 58},
      {"smiles": "O=C(N[C@H]1CN2CCC1CC2)c1cc2ccc3ccccc3c2o1", "note": "[Example 48, N-[(3R)-1-Azabicyclo[2.2.2]oct-3-yl]naphtho[1,2-b]furan-2-carboxamide hydrochloride]", "Ki": 75},
      {"smiles": "O=C(N[C@@H]1CN2CCC1CC2)c1cc2cccc(F)c2s1", "note": "[Example 59, N-[(3S)-1-Azabicyclo[2.2.2]oct-3-yl]-7-fluoro-1-benzothiophene-2-carboxamide hydrochloride]", "Ki": 20},
      {"smiles": "Nc1ccc2sc(C(=O)N[C@H]3CN4CCC3CC4)cc2c1", "note": "[Example 62, N-[(3R)-1-Azabicyclo[2.2.2]oct-3-yl]-5-amino-1-benzothiophene-2-carboxamide dihydrochloride]", "Ki": 50},
      {"smiles": "O=C(N[C@H]1CN2CCC1CC2)c1cc2cccc(C(F)(F)F)c2s1", "note": "[Example 64, N-[(3R)-1-Azabicyclo[2.2.2]oct-3-yl]-7-trifluoromethyl-1-benzothiophene-2-carboxamide hydrochloride]", "Ki": 20},
      {"smiles": "O=C(N[C@@H]1CN2CCC1CC2)c1cc2cccc(C(F)(F)F)c2s1", "note": "[Example 65, N-[(3S)-1-Azabicyclo[2.2.2]oct-3-yl]-7-trifluoromethyl-1-benzothiophene-2-carboxamide hydrochloride]", "Ki": 55},
      {"smiles": "Nc1cccc2cc(C(=O)N[C@H]3CN4CCC3CC4)sc12", "note": "[Example 68, N-[(3R)-1-Azabicyclo[2.2.2]oct-3-yl]-7-amino-1-benzothiophene-2-carboxamide dihydrochloride]", "Ki": 2},
      {"smiles": "Nc1ccc2cc(C(=O)N[C@H]3CN4CCC3CC4)sc2c1", "note": "[Example 73, 6-Amino-N-[(3R)-1-azabicyclo[2.2.2]oct-3-yl]-1-benzothiophene-2-carboxamide dihydrochloride]", "Ki": 2.8},
      {"smiles": "O=C(N[C@H]1CN2CCC1CC2)c1cc2cc(F)ccc2s1", "note": "[Example 74, N-[(3R)-1-Azabicyclo[2.2.2]oct-3-yl]-5-fluoro-1-benzothiophene-2-carboxamide hydrochloride]", "Ki": 22},
      {"smiles": "COc1cccc2cc(C(=O)N[C@H]3CN4CCC3CC4)sc12", "note": "[Example 76, N-[(3R)-1-Azabicyclo[2.2.2]oct-3-yl]-7-methoxy-1-benzothiophene-2-carboxamide hydrochloride]", "Ki": 6.7},
      {"smiles": "COc1cccc2cc(C(=O)N[C@@H]3CN4CCC3CC4)sc12", "note": "[Example 77, N-[(3S)-1-Azabicyclo[2.2.2]oct-3-yl]-7-methoxy-1-benzothiophene-2-carboxamide hydrochloride]", "Ki": 20},
      {"smiles": "O=C(N[C@H]1CN2CCC1CC2)c1cc2c(F)cccc2s1", "note": "[Example 78, N-[(3R)-1-Azabicyclo[2.2.2]oct-3-yl]-4-fluoro-1-benzothiophene-2-carboxamide hydrochloride]", "Ki": 80},
      {"smiles": "O=C(N[C@H]1CN2CCC1CC2)c1cc2cc(F)cc(F)c2s1", "note": "[Example 80, N-[(3R)-1-Azabicyclo[2.2.2]oct-3-yl]-5,7-difluoro-1-benzothiophene-2-carboxamide hydrochloride]", "Ki": 31},
      {"smiles": "CC(=O)Nc1ccc2cc(C(=O)N[C@H]3CN4CCC3CC4)sc2c1", "note": "[Example 88, 6-(Acetylamino)-N-[(3R)-1-azabicyclo[2.2.2]oct-3-yl]-1-benzothiophene-2-carboxamide hydrochloride]", "Ki": 28}
    ]}
  ]
}
